Laboratory results as given in the supplement of paper PMC10307832.

Tests used:
Test in all cases: relative viability (nuclei count vs DMSO), 5 days (fraction); higher = more cells survive
Adavosertib + Vorinostat = compound: C=CCn1c(=O)c2cnc(Nc3ccc(N4CCN(C)CC4)cc3)nc2n1-c1cccc(C(C)(C)O)n1 [Adavosertib] + O=C(CCCCCCC(=O)Nc1ccccc1)NO [Vorinostat] (partner 1 µM)
In short: (§1)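 Relative viability equals treated-well nuclei counts divided by vehicle-well nuclei counts. Counts came from 4× images of lung cancer cell lines grown in 1536-well plates for 5 days after pin-tool dosing on the day after seeding. Dosing used one drug alone or a fixed anchor-drug dose plus five library-drug doses (not always all listed) in √10 steps, and values are medians of duplicate plates.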

Nelarabine + Linsitinib = compound: COc1nc(N)nc2c1ncn2[C@@H]1O[C@H](CO)[C@@H](O)[C@@H]1O [Nelarabine] + C[C@]1(O)C[C@@H](c2nc(-c3ccc4ccc(-c5ccccc5)nc4c3)c3c(N)nccn32)C1 [Linsitinib] (partner 1 µM)
In short: as §1

Adavosertib + OSI-027 = compound: C=CCn1c(=O)c2cnc(Nc3ccc(N4CCN(C)CC4)cc3)nc2n1-c1cccc(C(C)(C)O)n1 [Adavosertib] + COc1cccc2cc(-c3nc([C@H]4CC[C@H](C(=O)O)CC4)n4ncnc(N)c34)[nH]c12 [OSI-027] (partner 0.5 µM)
In short: as §1

Nelarabine + Navitoclax = compound: COc1nc(N)nc2c1ncn2[C@@H]1O[C@H](CO)[C@@H](O)[C@@H]1O [Nelarabine] + CC1(C)CCC(c2ccc(Cl)cc2)=C(CN2CCN(c3ccc(C(=O)NS(=O)(=O)c4ccc(N[C@H](CCN5CCOCC5)CSc5ccccc5)c(S(=O)(=O)C(F)(F)F)c4)cc3)CC2)C1 [Navitoclax] (partner 0.5 µM)
In short: as §1

Cell Line	relative viability (Adavosertib + Vorinostat; first compound 0.01 µM)	relative viability (Adavosertib + Vorinostat; first compound 0.03162 µM)	relative viability (Adavosertib + Vorinostat; first compound 0.1 µM)	relative viability (Adavosertib + Vorinostat; first compound 0.3162 µM)	relative viability (Nelarabine + Linsitinib; first compound 0.01 µM)	relative viability (Nelarabine + Linsitinib; first compound 0.03162 µM)	relative viability (Nelarabine + Linsitinib; first compound 0.1 µM)	relative viability (Nelarabine + Linsitinib; first compound 0.3162 µM)	relative viability (Nelarabine + Linsitinib; first compound 1 µM)	relative viability (Adavosertib + OSI-027; first compound 0.01 µM)	relative viability (Adavosertib + OSI-027; first compound 0.03162 µM)	relative viability (Adavosertib + OSI-027; first compound 0.1 µM)	relative viability (Adavosertib + OSI-027; first compound 0.3162 µM)	relative viability (Nelarabine + Navitoclax; first compound 0.01 µM)	relative viability (Nelarabine + Navitoclax; first compound 0.03162 µM)	relative viability (Nelarabine + Navitoclax; first compound 0.1 µM)	relative viability (Nelarabine + Navitoclax; first compound 0.3162 µM)	relative viability (Nelarabine + Navitoclax; first compound 1 µM)
LC-2-ad	0.708	0.661	0.736	0.704	0.919	0.832	0.823	0.758	0.797	0.834	0.94	0.892	0.694	0.619	0.384	0.519	0.434	0.452
LOU-NH91	0.882	0.99	0.908	0.896	1.02	0.953	0.865	0.886	0.947	0.65	0.707	0.742	0.677	0.786	0.588	0.616	0.632	0.69
CAL-12T	0.797	0.889	0.821	0.741	0.857	0.931	0.809	0.778	0.832	0.568	0.711	0.582	0.235	1.37	1.11	1.31	1.41	1.14
NCI-H2009	0.829	0.743	0.9	0.676	1.29	1.26	1.14	1.23	1.19	0.698	0.644	0.651	0.366	1.26	1.18	1.19	1.2	1.18
SK-LU-1	0.734	0.831	0.666	0.453	1.45	0.835	1.1	1.11	1.35	0.394	0.324	0.296	0.182	0.773	0.485	0.84	0.79	0.79
NCI-H1793	0.695	0.739	0.581	0.745	1.3	0.801	0.863	0.724	0.84	0.282	0.289	0.26	0.277	0.46	0.552	0.433	0.47	0.385
NCI-H3122	0.991	0.942	0.857	0.992	1.04	0.77		0.97	1.04	0.972	0.914	1.07	1.06	1.04	0.668		1.04	1.05
NCI-H1437	0.985	0.784	0.936	0.816	1.27	1.05	0.998	1.08	1.01	0.931	0.868	0.973	0.788	1.38	1.16	1.09	1.05	1.03
HCC-78	0.492	0.437	0.473	0.42	0.627	0.506		0.536	0.574	0.355	0.354	0.325	0.339	0.96	0.925		0.955	0.901
A-427	0.872	0.865	0.831	0.705	1.03	1.12	1.11	1.15	1.06	0.472	0.411	0.481	0.268	1.05	1.02	0.916	0.897	0.912
HCC-15	0.908	0.823	0.86	0.829	1.06	0.841	0.904	0.87	1	0.669	0.786	0.756	0.802	0.794	0.633	0.686	0.724	0.705
EKVX	0.843	0.718	0.697	0.682	1.08	0.849	0.851	1.19	0.941	0.729	0.77	0.679	0.651	1.14	0.897	0.856	1.08	0.982
BEN	0.628	0.553	0.669	0.592	1.27	0.818	1	1.04	1.07	0.293	0.333	0.297	0.273	0.0794	0.0676	0.187	0.0641	0.0472
201T	0.953	1.01	0.95	1.05	1.18	0.942	1.07	0.958	0.96	0.667	0.734	0.669	0.666	1.15	1.18	1.18	1.15	1.16
SW 1573	0.807	0.687	0.904	0.758	0.82	0.646	0.848	0.799	0.73	0.645	0.626	0.882	0.278	1.14	1.26	1.02	0.98	1.03
HCC-827	0.716	0.868	0.873	0.885	0.922	0.826	0.877	0.772	0.666	0.779	0.832	0.738	0.724	1.02	0.886	0.91	0.797	0.705
NCI-H2228		0.606	0.536	0.294	0.519	0.832		0.63	0.898	0.509	0.651	0.618	0.142	1.3	1.11		1.33	0.722
NCI-H2085	0.782	0.807	0.765	0.649	1.3	0.747	0.848	0.883	0.867	0.857	0.808	0.689	0.87	1.08	1.08	1.18	1.18	1.18

Cell Line	relative viability (Adavosertib + Vorinostat; first compound 0.01 µM)	relative viability (Adavosertib + Vorinostat; first compound 0.03162 µM)	relative viability (Adavosertib + Vorinostat; first compound 0.1 µM)	relative viability (Adavosertib + Vorinostat; first compound 0.3162 µM)	relative viability (Nelarabine + Linsitinib; first compound 0.01 µM)	relative viability (Nelarabine + Linsitinib; first compound 0.03162 µM)	relative viability (Nelarabine + Linsitinib; first compound 0.1 µM)	relative viability (Nelarabine + Linsitinib; first compound 0.3162 µM)	relative viability (Nelarabine + Linsitinib; first compound 1 µM)	relative viability (Adavosertib + OSI-027; first compound 0.01 µM)	relative viability (Adavosertib + OSI-027; first compound 0.03162 µM)	relative viability (Adavosertib + OSI-027; first compound 0.1 µM)	relative viability (Adavosertib + OSI-027; first compound 0.3162 µM)	relative viability (Nelarabine + Navitoclax; first compound 0.01 µM)	relative viability (Nelarabine + Navitoclax; first compound 0.03162 µM)	relative viability (Nelarabine + Navitoclax; first compound 0.1 µM)	relative viability (Nelarabine + Navitoclax; first compound 0.3162 µM)	relative viability (Nelarabine + Navitoclax; first compound 1 µM)
NCI-H727	0.934	1.13	1.13	1.15	0.28	0.331	0.299	0.306	0.271	0.599	0.546	0.523	0.575	0.496	0.384	0.376	0.424	0.377
NCI-H596	0.691	0.637	0.613	0.415	1.15	1.2	1.07	1.16	1.04	0.784	0.914	0.752	0.732	0.986	1.13	0.959	1.04	0.994
PC-3 [JPC-3]		0.756	0.621	0.753	1.05	0.958	0.943	0.942	0.975	0.805	0.743	0.775	0.731	1.04	0.732	0.748	0.913	0.926
COR-L23	0.486	0.406	0.386	0.166	1.12	0.996	1	0.911	1.06	0.858	0.745	0.717	0.349	1.4	1.14	1.09	1.04	0.977
RERF-LC-KJ	0.65	0.708	0.629	0.654	0.908	1.06	0.915	0.907	0.884	0.561	0.512	0.555	0.465	0.859	1.12	0.901	1.08	0.783
HCC-366	0.353	0.411	0.319	0.219	1.21	0.427	0.551	0.785	0.769	0.964	1.02	0.897	0.889	1.55	1.03	1.22	1.2	1
NCI-H460	0.712	0.702	0.906	0.355	1.09	0.891	1.12	1.21	0.731	0.758	0.667	0.561	0.341		1.68	1.42	1.37	1.17
NCI-H1915	0.552	0.521	0.53	0.373	1.15	1.08	1.06	1.1	1.1	0.677	0.606	0.69	0.586	0.799	0.687	0.767	0.805	0.796
COR-L 105	0.892	0.848	0.898	0.677	0.863	1.03	0.95	1.04	0.984	0.598	0.677	0.558	0.503	0.936	0.956	0.733	0.819	0.795
NCI-H441	0.848	0.829	0.881	0.72	0.679	0.605	0.614	0.52	0.603	0.758	0.56	0.471	0.425	1.13	0.707	0.912	0.5	0.49
HARA	0.485	0.629	0.592	0.587	1.29	0.814	0.771	1.18	0.941	0.485	0.486	0.591	0.368	1.17	1.08	1.07	1.22	1.06
NCI-H1755	0.935	0.864	0.682	0.546	1.01	0.999	0.989	1.1	0.995	0.662	0.731	0.754	0.666	1.06	0.846	0.555	1.14	1.03
LXF-289	0.795	0.791	0.768	0.735	1.01	0.935	0.969	0.997	0.949	0.809	0.678	0.721	0.938	1.12	0.882	0.98	1	0.908
HCC-44	1.09	1.06	1.09	1.07	0.712	0.678	0.678	0.657	0.691	0.525	0.484	0.538	0.578	1.27	1.09	0.985	1.05	0.966
HOP-62	0.689	0.653	0.733	0.62	0.933	0.967	1.11	0.872	0.801	0.92	0.907	0.852	0.85	1.25	1	1.06	1.08	1.11
NCI-H2126	0.738	0.759	0.781	0.789	0.71	0.824	0.754	0.711	0.689	0.569	0.697	0.769	0.727	0.869	0.748	0.786	0.816	0.743
NCI-H1355	0.609	0.649	0.679	0.568	1.04	0.688	0.739	0.822	0.887	0.396	0.387	0.364	0.355	1.1	0.818	0.923	1.01	0.991
NCI-H1944	0.541	0.531	0.563	0.369	1.28	1.16	1.38	1.21	1.08	0.378	0.429	0.394	0.402	1.02	0.964	1.01	0.937	0.968
